Assay: Sodium-dependent intensity decays of SG in 20 mM MOPS buffer, 8 mM KCl
Type: physicochemical
Parameters: key to α1 / α2 / α3 / f1 / f2 / f3: fractional amplitudes (α) and intensity fractions (f); Σαi=1.0, Σfi=1.0
Description: Fluorescence Spectroscopic Measurements. Fluorescence intensities and intensity decays were measured using a Varian™ Eclipse 4 spectrofluorometer and a FluoTime300 instrument from PicoQuant™ (Berlin, Germany) and analyzed with the EasyTau™ software. The excitation source was a 473 nm laser diode with a repetition rate of 40 MHZ and a pulse width less than 100 ps. In other embodiments, the excitation source for SG-PL was at 495 nm from a Solea™ supercontinuum laser (PicoQuant™, Germany) and a 375 nm laser diode (PDL 375, PicoQuant™), a repetition rate of 40 MHz, and a pulse width less than 100 ps. Some intensity and lifetime measurements for SG-PL (as indicated) were performed using Alba V confocal fluorescence lifetime microscopy, FLIM (ISS, Urbana, Ill.), with excitation source of a 473 nm laser diode with a repetition rate of 40 MHz and a pulse width near 250 ps.
Intensity decays were measured at the emission maximum with the band of 10 to 20 nm, analyzed in terms of the multi-exponential model:
I(t)=Σαi exp(−t/ti) (equation 1)
where ti are the individual decay times and αi the initial time-zero amplitudes. The mean decay time can be represented in two ways. The average lifetime is given by:
where Σαi=1.0 and Σfi=1.0. The term fi=αi τi is proportional to the fractional contribution of each component to the total intensity decay. The term τi/Σαi τi is the fractional contribution to the steady state emission. Here, we use the amplitude-weighted lifetime given by
which is appropriate when the emission is from a single fluorophore with a changing quantum yield. For a single exponential decay, the lifetime is given by τ=1.0/(knr+Γ) and the quantum yield is given by Q=Γ/(knr+Γ) where knr is the sum of all non-radiative decay rates and Γ is the radiative decay rate. The value of Γ is determined by the molecular extinction coefficient that remains constant under most conditions. For a single type of fluorophore with a constant value of Γ the normalized αi values represent the molecular fraction of each decay time component. The value of αi and τi were determined by non-linear least squares fitting using PicoQuant™ software.
Three decay time components were required for the intensity decays. Fluorescence anisotropy decays were determined by individual measurements of the polarized intensity decays with corrections for the G-factor. Resolution of multi-exponential decays is not necessary. The average lifetime can be used as a single measurement. […]

[1] = NaCl 0 mM, 20 mM MOPS buffer 8 mM KCl
[2] = NaCl 5 mM, 20 mM MOPS buffer 8 mM KCl
[3] = NaCl 10 mM, 20 mM MOPS buffer 8 mM KCl
[4] = NaCl 20 mM, 20 mM MOPS buffer 8 mM KCl
[5] = NaCl 30 mM, 20 mM MOPS buffer 8 mM KCl
[6] = NaCl 50 mM, 20 mM MOPS buffer 8 mM KCl
[7] = NaCl 90 mM, 20 mM MOPS buffer 8 mM KCl
[8] = NaCl 150 mM, 20 mM MOPS buffer 8 mM KCl
[9] = NaCl 210 mM, 20 mM MOPS buffer 8 mM KCl

f1 (NaCl 0 mM, MOPS buffer): 0.272 | f2 (NaCl 0 mM, MOPS buffer): 0.174 | f3 (NaCl 0 mM, MOPS buffer): 0.554 | α1 (NaCl 0 mM, MOPS buffer): 0.703 | α2 (NaCl 0 mM, MOPS buffer): 0.155 | α3 (NaCl 0 mM, MOPS buffer): 0.142 | τ1 (NaCl 0 mM, MOPS buffer): 0.36 ns | τ2 (NaCl 0 mM, MOPS buffer): 1.03 ns | τ3 (NaCl 0 mM, MOPS buffer): 3.59 ns | τf (NaCl 0 mM, MOPS buffer): 2.27 ns | τα (NaCl 0 mM, MOPS buffer): 0.92 ns | f1 [1]: 0.272 | f2 [1]: 0.174 | f3 [1]: 0.554 | α1 [1]: 0.703 | α2 [1]: 0.155 | α3 [1]: 0.142 | τ1 [1]: 0.36 ns | τ2 [1]: 1.03 ns | τ3 [1]: 3.59 ns | τf [1]: 2.27 ns | τα [1]: 0.92 ns | f1 (NaCl 5 mM, MOPS buffer): 0.111 | f2 (NaCl 5 mM, MOPS buffer): 0.223 | f3 (NaCl 5 mM, MOPS buffer): 0.666 | α1 (NaCl 5 mM, MOPS buffer): 0.439 | α2 (NaCl 5 mM, MOPS buffer): 0.244 | α3 (NaCl 5 mM, MOPS buffer): 0.317 | τ1 (NaCl 5 mM, MOPS buffer): 0.39 ns | τ2 (NaCl 5 mM, MOPS buffer): 1.44 ns | τ3 (NaCl 5 mM, MOPS buffer): 3.28 ns | τf (NaCl 5 mM, MOPS buffer): 2.55 ns | τα (NaCl 5 mM, MOPS buffer): 1.57 ns | f1 [2]: 0.111 | f2 [2]: 0.223 | f3 [2]: 0.666 | α1 [2]: 0.439 | α2 [2]: 0.244 | α3 [2]: 0.317 | τ1 [2]: 0.39 ns | τ2 [2]: 1.44 ns | τ3 [2]: 3.28 ns | τf [2]: 2.55 ns | τα [2]: 1.57 ns | f1 (NaCl 10 mM, MOPS buffer): 0.078 | f2 (NaCl 10 mM, MOPS buffer): 0.224 | f3 (NaCl 10 mM, MOPS buffer): 0.699 | α1 (NaCl 10 mM, MOPS buffer): 0.341 | α2 (NaCl 10 mM, MOPS buffer): 0.276 | α3 (NaCl 10 mM, MOPS buffer): 0.383 | τ1 (NaCl 10 mM, MOPS buffer): 0.40 ns | τ2 (NaCl 10 mM, MOPS buffer): 1.43 ns | τ3 (NaCl 10 mM, MOPS buffer): 3.22 ns | τf (NaCl 10 mM, MOPS buffer): 2.60 ns | τα (NaCl 10 mM, MOPS buffer): 1.77 ns | f1 [3]: 0.078 | f2 [3]: 0.224 | f3 [3]: 0.699 | α1 [3]: 0.341 | α2 [3]: 0.276 | α3 [3]: 0.383 | τ1 [3]: 0.40 ns | τ2 [3]: 1.43 ns | τ3 [3]: 3.22 ns | τf [3]: 2.60 ns | τα [3]: 1.77 ns | f1 (NaCl 20 mM, MOPS buffer): 0.094 | f2 (NaCl 20 mM, MOPS buffer): 0.355 | f3 (NaCl 20 mM, MOPS buffer): 0.551 | α1 (NaCl 20 mM, MOPS buffer): 0.324 | α2 (NaCl 20 mM, MOPS buffer): 0.353 | α3 (NaCl 20 mM, MOPS buffer): 0.323 | τ1 (NaCl 20 mM, MOPS buffer): 0.57 ns | τ2 (NaCl 20 mM, MOPS buffer): 2.00 ns | τ3 (NaCl 20 mM, MOPS buffer): 3.39 ns | τf (NaCl 20 mM, MOPS buffer): 2.63 ns | τα (NaCl 20 mM, MOPS buffer): 1.99 ns | f1 [4]: 0.094 | f2 [4]: 0.355 | f3 [4]: 0.551 | α1 [4]: 0.324 | α2 [4]: 0.353 | α3 [4]: 0.323 | τ1 [4]: 0.57 ns | τ2 [4]: 2.00 ns | τ3 [4]: 3.39 ns | τf [4]: 2.63 ns | τα [4]: 1.99 ns | f1 (NaCl 30 mM, MOPS buffer): 0.068 | f2 (NaCl 30 mM, MOPS buffer): 0.295 | f3 (NaCl 30 mM, MOPS buffer): 0.638 | α1 (NaCl 30 mM, MOPS buffer): 0.255 | α2 (NaCl 30 mM, MOPS buffer): 0.349 | α3 (NaCl 30 mM, MOPS buffer): 0.396 | τ1 (NaCl 30 mM, MOPS buffer): 0.54 ns | τ2 (NaCl 30 mM, MOPS buffer): 1.72 ns | τ3 (NaCl 30 mM, MOPS buffer): 3.27 ns | τf (NaCl 30 mM, MOPS buffer): 2.63 ns | τα (NaCl 30 mM, MOPS buffer): 2.03 ns | f1 [5]: 0.068 | f2 [5]: 0.295 | f3 [5]: 0.638 | α1 [5]: 0.255 | α2 [5]: 0.349 | α3 [5]: 0.396 | τ1 [5]: 0.54 ns | τ2 [5]: 1.72 ns | τ3 [5]: 3.27 ns | τf [5]: 2.63 ns | τα [5]: 2.03 ns | f1 (NaCl 50 mM, MOPS buffer): 0.081 | f2 (NaCl 50 mM, MOPS buffer): 0.349 | f3 (NaCl 50 mM, MOPS buffer): 0.570 | α1 (NaCl 50 mM, MOPS buffer): 0.259 | α2 (NaCl 50 mM, MOPS buffer): 0.380 | α3 (NaCl 50 mM, MOPS buffer): 0.361 | τ1 (NaCl 50 mM, MOPS buffer): 0.66 ns | τ2 (NaCl 50 mM, MOPS buffer): 1.95 ns | τ3 (NaCl 50 mM, MOPS buffer): 3.35 ns | τf (NaCl 50 mM, MOPS buffer): 2.64 ns | τα (NaCl 50 mM, MOPS buffer): 2.12 ns | f1 [6]: 0.081 | f2 [6]: 0.349 | f3 [6]: 0.570 | α1 [6]: 0.259 | α2 [6]: 0.380 | α3 [6]: 0.361 | τ1 [6]: 0.66 ns | τ2 [6]: 1.95 ns | τ3 [6]: 3.35 ns | τf [6]: 2.64 ns | τα [6]: 2.12 ns | f1 (NaCl 90 mM, MOPS buffer): 0.074 | f2 (NaCl 90 mM, MOPS buffer): 0.380 | f3 (NaCl 90 mM, MOPS buffer): 0.545 | α1 (NaCl 90 mM, MOPS buffer): 0.242 | α2 (NaCl 90 mM, MOPS buffer): 0.416 | α3 (NaCl 90 mM, MOPS buffer): 0.342 | τ1 (NaCl 90 mM, MOPS buffer): 0.64 ns | τ2 (NaCl 90 mM, MOPS buffer): 1.93 ns | τ3 (NaCl 90 mM, MOPS buffer): 3.36 ns | τf (NaCl 90 mM, MOPS buffer): 2.61 ns | τα (NaCl 90 mM, MOPS buffer): 2.11 ns | f1 [7]: 0.074 | f2 [7]: 0.380 | f3 [7]: 0.545 | α1 [7]: 0.242 | α2 [7]: 0.416 | α3 [7]: 0.342 | τ1 [7]: 0.64 ns | τ2 [7]: 1.93 ns | τ3 [7]: 3.36 ns | τf [7]: 2.61 ns | τα [7]: 2.11 ns | f1 (NaCl 150 mM, MOPS buffer): 0.116 | f2 (NaCl 150 mM, MOPS buffer): 0.699 | f3 (NaCl 150 mM, MOPS buffer): 0.185 | α1 (NaCl 150 mM, MOPS buffer): 0.305 | α2 (NaCl 150 mM, MOPS buffer): 0.605 | α3 (NaCl 150 mM, MOPS buffer): 0.091 | τ1 (NaCl 150 mM, MOPS buffer): 0.81 ns | τ2 (NaCl 150 mM, MOPS buffer): 2.48 ns | τ3 (NaCl 150 mM, MOPS buffer): 4.38 ns | τf (NaCl 150 mM, MOPS buffer): 2.64 ns | τα (NaCl 150 mM, MOPS buffer): 2.15 ns | f1 [8]: 0.116 | f2 [8]: 0.699 | f3 [8]: 0.185 | α1 [8]: 0.305 | α2 [8]: 0.605 | α3 [8]: 0.091 | τ1 [8]: 0.81 ns | τ2 [8]: 2.48 ns | τ3 [8]: 4.38 ns | τf [8]: 2.64 ns | τα [8]: 2.15 ns | f1 (NaCl 210 mM, MOPS buffer): 0.074 | f2 (NaCl 210 mM, MOPS buffer): 0.377 | f3 (NaCl 210 mM, MOPS buffer): 0.549 | α1 (NaCl 210 mM, MOPS buffer): 0.224 | α2 (NaCl 210 mM, MOPS buffer): 0.424 | α3 (NaCl 210 mM, MOPS buffer): 0.352 | τ1 (NaCl 210 mM, MOPS buffer): 0.70 ns | τ2 (NaCl 210 mM, MOPS buffer): 1.88 ns | τ3 (NaCl 210 mM, MOPS buffer): 3.29 ns | τf (NaCl 210 mM, MOPS buffer): 2.57 ns | τα (NaCl 210 mM, MOPS buffer): 2.12 ns | f1 [9]: 0.074 | f2 [9]: 0.377 | f3 [9]: 0.549 | α1 [9]: 0.224 | α2 [9]: 0.424 | α3 [9]: 0.352 | τ1 [9]: 0.70 ns | τ2 [9]: 1.88 ns | τ3 [9]: 3.29 ns | τf [9]: 2.57 ns | τα [9]: 2.12 ns
SMILES: COc1cc(N2CCOCCOCCN(c3cc(OC)c(NC(=O)c4ccc(-c5c6cc(Cl)c(=O)cc-6oc6cc([O-])c(Cl)cc56)c(C(=O)[O-])c4)cc3OC)CCOCC2)c(OC)cc1NC(=O)c1ccc(-c2c3cc(Cl)c(=O)cc-3oc3cc([O-])c(Cl)cc23)c(C(=O)[O-])c1.C[N+](C)(C)C.C[N+](C)(C)C.C[N+](C)(C)C.C[N+](C)(C)C [SG]

From patent US20220050096A1, “ANALYTE-SENSITIVE PROBES AND CONTACT LENS FOR DIAGNOSIS OF OCULAR PATHOLOGIES” (University Of Maryland, Baltimore, priority 2020, published 2022)
